Source: PubChem BioAssay (NCI)
Where “and” joins values, the source holds several entries; their conditions need not be identical. Equal entries are not always repeated.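 Briefly, cells in 96-well plates were exposed to five compound concentrations for 48 h, and endpoints were estimated by linear interpolation. The concentration for 50% growth inhibition is given as GI50. TGI: total growth inhibition.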

How the values were obtained:
Experiment in all cases: NCI-60 cell line screen, 48 h
UACC-257 melanoma = system: UACC-257 melanoma
TK-10 renal = system: TK-10 renal
NCI-H226 lung = system: NCI-H226 lung
MOLT-4 leukemia = system: MOLT-4 leukemia
SNB-19 CNS = system: SNB-19 CNS
PC-3 prostate = system: PC-3 prostate
DU-145 prostate = system: DU-145 prostate
NCI/ADR-RES ovarian = system: NCI/ADR-RES ovarian
HOP-92 NSCLC = system: HOP-92 NSCLC
HCC-2998 colon = system: HCC-2998 colon

SMILES | TGI (UACC-257 melanoma) [µM] | TGI (TK-10 renal) [µM] | TGI (NCI-H226 lung) [µM] | TGI (MOLT-4 leukemia) [µM] | TGI (SNB-19 CNS) [µM] | GI50 (UACC-257 melanoma) [µM] | GI50 (PC-3 prostate) [µM] | TGI (PC-3 prostate) [µM] | GI50 (TK-10 renal) [µM] | GI50 (NCI-H226 lung) [µM] | GI50 (DU-145 prostate) [µM] | TGI (DU-145 prostate) [µM] | GI50 (NCI/ADR-RES ovarian) [µM] | TGI (NCI/ADR-RES ovarian) [µM] | GI50 (HOP-92 NSCLC) [µM] | TGI (HOP-92 NSCLC) | GI50 (SNB-19 CNS) [µM] | GI50 (HCC-2998 colon) [µM] | TGI (HCC-2998 colon) [µM] | GI50 (MOLT-4 leukemia) [µM]
Oc1ccccc1C=NCc1ccco1 | > 100 | > 100 | > 100 | > 100 | > 100 | – | – | – | – | – | – | – | – | – | – | – | – | – | – | –
Cc1ccccc1N=Nc1ccc(NC(=O)c2ccnn2C)c(C)c1 | > 100 | > 100 | 89.6 | – | > 100 | 49 | 92.7 | > 100 | 20.5 | 15 | > 100 | > 100 | 63.7 | > 100 | 6.99 | 34.9 µM | 24.4 | > 100 | > 100 | –
N#Cc1c(NN)nc(NN)c(C#N)c1-c1ccccc1 | > 100 | > 100 | > 100 | > 100 | > 100 | – | – | – | – | – | – | – | – | – | – | > 100 µM | – | – | > 100 | –
N/C(=C\c1ccc(OCc2ccccc2)c(OCc2ccccc2)c1[N+](=O)[O-])C(=O)O | > 100 | > 100 | > 100 | > 100 | > 100 | – | – | – | – | – | – | – | – | – | – | > 100 µM | – | – | > 100 | –
Cn1c(=O)nc2n(-c3cccc(Br)c3)c3ccccc3nc-2c1=O | 6.58 | 24.1 | 22.2 | – | 6.86 | – | – | – | – | – | – | – | – | – | – | – | – | – | 9.59 | –
CCCCCCCCCCCCCC(=O)CC(=O)c1c(O)cccc1O | 85.3 | > 100 | 80.3 | 52.7 | 99.2 | – | – | – | – | – | – | – | – | – | – | 89.7 µM | – | – | > 100 | –
Nc1ncnc2c1nc(Cl)n2C1OC2COP(=O)(O)OC2C1O (stereo not drawn) | > 300 | > 222 | > 155 | – | > 300 | – | – | > 162 | – | – | – | > 300 | – | > 300 | – | 229 µM and > 92.9 µM | – | – | > 300 | –
CCC/C(=N/NC(=O)C(N)=O)C(CC)C(=O)CCC(=O)N(Cc1ccccc1)Cc1ccccc1 (stereo not drawn) | > 100 | > 100 | > 100 | > 100 | > 100 | – | – | – | – | – | – | – | – | – | – | > 100 µM | – | – | > 100 | –
O=c1cc2ccccc2nn1Cc1cccc(Cl)c1 | > 100 | > 100 | > 100 | – | > 100 | – | – | – | – | – | – | – | – | – | – | > 100 µM | – | – | > 100 | –
CC1(CO)OC(n2cc(C(=O)NC(=O)OCc3ccccc3)c(=O)[nH]c2=O)CC1O (stereo not drawn) | > 100 | > 100 | > 100 | > 100 | > 100 | – | – | – | – | – | – | – | – | – | – | > 100 µM | – | – | – | –
CC(=O)[CH-]C(=O)c1ccccc1.CC(=O)[CH-]C(=O)c1ccccc1.CC1(C)C2CCC1(C)C([O-])C2.CC1(C)C2CCC1(C)C([O-])C2.[Ti+4] | > 100 | > 100 | 90.7 | > 100 | 97.7 | 88.7 | – | – | 53.5 | 23.2 | – | – | – | – | 12.9 | 34.9 µM | 25.8 | 38.5 | > 100 | 34.8
Cc1ccccc1C(=O)c1ccccc1O | > 100 | > 100 | > 100 | > 100 | > 100 | – | – | – | – | – | – | – | – | – | – | > 100 µM | – | – | > 100 | –
COC(=O)N1CCc2c(nc(N(C)CCO)[nH]c2=O)C1 | > 100 | > 100 | > 100 | > 100 | > 100 | – | – | – | – | – | – | – | – | – | – | > 100 µM | – | – | > 100 | –
O=C1C(Cl)=C(Nc2cccc(Cl)c2)C(=O)N1Cc1ccccc1Cl | 30.9 | 30 | 2.9 | > 100 | – | 12.8 | 4.8 | 21.3 | 12.1 | 0.296 | 18.2 | 38.1 | – | – | 8.28 | 32.4 µM | – | – | – | 0.37
CN(C)c1ccc([O][Bi]([Cl])[Cl])cc1 | > 100 | > 100 | > 100 | > 100 | > 100 | 37.2 | – | – | > 100 | > 100 | – | – | – | – | – | – | > 100 | 42.5 | > 100 | > 100
COC(=O)/C([Se]c1c(C)cc(C)cc1C)=C(\[Se]c1c(C)cc(C)cc1C)C(=O)OC | > 100 | > 100 | > 100 | > 100 | > 100 | – | – | – | – | – | – | – | – | – | – | > 100 µM | – | – | > 100 | –
O=S1CCS(=O)CCS(=O)CC1 (stereo not drawn) | > 100 | > 100 | – | > 100 | > 100 | – | – | > 100 | – | – | – | > 100 | – | > 100 | – | > 100 µM | – | – | > 100 | –
COC(=O)C(=O)OC1(C(C)=O)CC2(c3ccccc3)OC1(c1ccccc1)c1ccccc12 (stereo not drawn) | 31.6 | 70.6 | 31.7 | > 100 | 47.3 | – | – | – | – | – | – | – | – | – | – | 27 µM | – | – | 31.4 | –
O=c1c2ccccc2n(C[C@H]2CO2)c2ccccc12 | 4.46 | 6.77 | – | 2.35 | 7.79 | 2.1 | 2.04 | 8.34 | 2.34 | – | 1.35 | 5.85 | 1.7 | 6.25 | 2.03 | 5.27 µM | 2.3 | 1.51 | 3.44 | 0.29
O=c1ccn(C2OC(CO/N=C/c3ccc(O)c(O)c3O)C(O)C2O)c(=O)[nH]1 (stereo not drawn) | > 100 | > 100 | > 100 | – | – | 33.5 | 25.1 | 86.9 | > 100 | > 100 | 17.1 | 33.2 | 20.5 | 49 | > 100 | > 100 µM | – | > 100 | > 100 | –
Clc1ccc2c(c1)C1C(CO2)C(c2ccccc2)=NN1c1ccccc1 (stereo not drawn) | > 100 | > 100 | – | 62.6 | > 100 | – | – | – | – | – | – | – | – | – | – | 58.9 µM | – | – | > 100 | –
Fc1ccc2c(c1)c(-c1nc(-c3c[nH]c4ncccc34)cs1)cn2CCCN1CCCCC1 | 3.7 | 3.42 | – | – | – | 1.92 | 1.69 | 3.2 | 1.85 | – | 1.74 | 3.26 | 1.64 | 3.15 | 1.47 | 2.95 µM | – | 1.7 | 3.14 | –
